Experimental data: patent US7005298B1, “Micropropagation and production of phytopharmaceutical plants” (priority 1999, dated 2006)
Marks after values point to notes of the source that are not given here.

What was measured:
[1] = system: Echinacea purpurea petiole explants; test: Regeneration of Echinacea purpurea petiole explants on induction medium (BAP, TDZ, IAA); format: cell-based; conditions: for Number of regenerants/petiole: after 33 days of culture
Description: The design of all experiments was a complete randomized block and treatments consisted of five replications. All the experiments were repeated at least twice and the data were analyzed using SAS Version 6.12 (SAS Inc., 1995). Significant differences between means were assessed by a Student-Neuman-Keulls means separation test at P≦0.05.
Germinating seedlings were cultured onto MS medium (Murashige & Skoog, 1962) with B5 vitamins (Gamborg et al 1968), 30 g·L^−1 sucrose and 3 g·L^−1 gelrite in Magenta boxes. Petiole explants, 2 cm in length were excised from 4 week old sterile Echinacea purpurea plants and cultured onto induction medium comprising MS media supplemented with thidiazuron (TDZ) (0.5, 1, 5 and 10 μmol·L^−1) or BAP (1, 2.5, 5, 7.5, 10, 12.5 and 15 μmol·L^−1). TDZ was added to the media at concentrations of 0.5 and 1.0 μmmol·L^−1 in combination with indole acetic acid (IAA, an auxin) at concentrations of 5 and 10 μmol·L^−1. Explants cultured on media containing TDZ and IAA were subcultured onto MS basal media after 23 days while those cultured on media containing higher concentrations of TDZ were subcultured onto MS basal media after 4 and 8 days. All treatments consisted of 10 plates per treatment and 6 explants per plate. Treatments were incubated in a growth cabinet with a 16 hour photoperiod under cool white light at 40–60 μmol·m^−2·s^−1. Regeneration was quantified after 25 and 33 days for all petiole cultures and roots after 33 and 42 days of culture. The resulting regenerants were excised from petioles and subcultured onto MS basal media in test tubes for germination after 32 days of culture.

Echinacea plantlets = test: Zinc uptake and growth of Echinacea plantlets on zinc-supplemented liquid basal medium; format: in vivo, Echinacea purpurea
Description: Germinating seedlings were cultured onto MS medium (Murashige & Skoog, 1962) with B5 vitamins (Gamborg et al 1968), 30 g·L^−1 sucrose and 3 g·L^−1 gelrite in Magenta boxes and incubated in a controlled environment chamber for 30 days with a 16 hour photoperiod under cool white light at 40–60 μmol·m^−2·s^−1. Mature seedlings were subcultured into 125 mL flasks containing 25 mL of basal medium supplemented with zinc at 0, 50, 100, 150 or 200 mg·L^−1 and incubated in the same chamber for 30 days (liquid baslal medium, Table 1).
In experiments designed to determine the zinc uptake in micropropagated Echinacea plantlets, petiole explants, 2 cm in length were excised from the 4 week old sterile Echinacea plants and subcultured onto induction medium comprising MS media supplemented with thidiazuron (TDZ) (0.5, 1, 5 and 10 μmol·L^−1) or BAP (1, 2.5, 5, 7.5, 10, 12.5 and 15 μmol·L^−1) alone or in combination with indoleacetic acid (IAA) at concentrations of 5 and 10 μmol·L^−1. […] Regeneration was quantified after 25 and 33 days for all petiole cultures and roots after 33 and 42 days of culture. […]
Plants were harvested on day 45 after treatments were initiated. […] Fresh weight of individual plantlets was determined prior to air drying at 90° C. for 48 hours. […] The zinc content of the samples was determined using an AA55 Varian Atomic Absorption Spectrophotometer or by ICP Analysis. […]

livestock growth = conditions: animal feeds supplemented with 3000 ppm inorganic zinc; cited from earlier work
[2] = system: uptake of serotonin, dopamine, noradrenaline, GABA and L-glutamate; conditions: animal cell cultures; cited from earlier work
[3] = system: St. John's wort plantlets; test: Lithium accumulation and growth of St. John's wort plantlets on lithium-supplemented liquid basal medium; format: in vivo, Hypericum perforatum
Description: St. John's wort seedlings were obtained from sterilized seeds germinated in a controlled environment. St. John's wort seeds were sterilized by immersing in a 70% ethanol solution for 5 s, followed by an immersion in a 30% solution of 5.4% sodium hypochlorite (Lilo Products, Hamilton, Ontario) in water with one drop of Tween 20 per 500 mL for 20 min, and a three times rinse in sterile distilled water. Sterile seeds were germinated and maintained on water agar (8 g·L^−1) for 16 days in darkness in a growth cabinet at 24° C. Individual seedlings were cultured in Magenta boxes on a medium containing MS medium (Murashige and Skoog, 1962), B5 vitamins (Gamborg et al 1968), 30 g·L^−1 sucrose and 3 g·L^−1 gellan gum (Gelrite, Schweitzerhall Inc., South Plainfield, N.J., USA). Seedling cultures were incubated in a growth cabinet with a 16 hour photoperiod under cool white light at 40–60 μmol·m^−2·s^−1. After 30 days, seedlings were excised from the Magenta boxes and subcultured into 125 mL flasks containing 25 mL of a basal medium containing MS medium (Murashige and Skoog, 1962), B5 vitamins (Gamborg et al 1968) and 30 g·L^−1 sucrose. […]
In a second series of experiments, the lithium accumulation of regenerated St. John's wort shoots was determined. […]
Samples were harvested from the cultures analysed for lithium with the same protocol as described above.

c1ccc(CNc2ncnc3[nH]cnc23)cc1 [BAP, benzylaminopurine]
Number of regenerants/petiole ([1]; BAP 1 μmol·L^−1): 5.4^ab | Number of regenerants/petiole ([1]; BAP 2.5 μmol·L^−1): 8.1^a | Number of regenerants/petiole ([1]; BAP 5 μmol·L^−1): 6.6^ab | Number of regenerants/petiole ([1]; BAP 7.5 μmol·L^−1): 5.2^ab | Number of regenerants/petiole ([1]; BAP 10 μmol·L^−1): 3.9^b | Number of regenerants/petiole ([1]; BAP 12.5 μmol·L^−1): 5.2^ab | Number of regenerants/petiole ([1]; BAP 15 μmol·L^−1): 5.5^ab | de novo shoot formation ([1]; BAP as the sole growth regulating compound, all concentrations): induced de nova shoot formation at all concentrations | callus formation and elongation of the petioles ([1]; culture medium supplemented with BAP): induce callus formation and elongation of the petioles

[Zn] [zinc]
appearance of plants (Echinacea plantlets; 50, 100 and 150 mg·L^−1 zinc treatment groups): appeared normal and healthy | plantlet growth (Echinacea plantlets; higher concentrations of zinc in the medium (above 150 mg·L^−1)): some inhibition of growth was observed | muscle and protein accretion and rate of growth (livestock growth): more rapid muscle and protein accretion and an overall acceleration in the rate of growth

hyperforin
uptake of serotonin, dopamine, noradrenaline, GABA and L-glutamate [2]: inhibition of uptake

[Li] [lithium]
appearance of plantlets ([3]; all treatment levels (0–200 mg·L^−1 lithium)): appeared healthy | growth rate ([3]; lithium supplementation of the culture medium, all treatment levels): unaffected
